One assay has as its system Kasumi-1 cells. The experiment in a line: Kasumi-1 cellular viability assay (ATP-Lite, 72 h). The class given is cell-based. The conditions noted are these: Homo sapiens, ATP-Lite luminescence, % viability relative to DMSO. The protocol: Kasumi-1 cell line was purchased from ATCC (ATCC® CRL2724™). Cells were isolated from the peripheral blood of a child with acute myeloid leukemia (AML FAB M2) (in 2nd relapse after bone marrow transplantation) in 1989. Most cells are round. Kasumi-1 cells are observed to grow individually or in small clumps in suspension.
Kasumi-1 cells are cultured in RPMI-1640 (Gibco A10491-01) containing 10% heat-inactivated and 0.22 μm filtered FBS (Gibco 10270-106) at a density of 3E+5 and 3E+6 viable cell/mL following the certificate of analysis.
Cellular viability assay: Kasumi-1 cells were plated (50 μL) in 96-well cell culture microplates (PS, F-Bottom black, Cellstar, Greiner 655086) at final concentration of 15000 cells/well. The compounds of the invention were dissolved in DMSO, and a titration curve was generated at 1000× final concentration. Compounds were then diluted 500× in tissue culture medium (RPMI-1640, 10% FBS). Then 50 μl of test compound were added to Kasumi-1 cells in a final DMSO concentration of 0.1%, final volume 100 μl. A gas permeable sealing membrane was applied to the plate to prevent evaporation (Breathe-Easy sealing membrane, Sigma Z380059-1PK) and cells were incubated for 72 h at 37° C., 5% CO2, 80% RH. After 72h of treatment, the plates were taken out of the incubator and left for a few minutes at room temperature. 100 μl of the reconstituted reagent ATP-Lite One Step (Perkin Elmer, 6016739) was added to each well. The plates were shaken for 2 min at 700 rpm and placed in the dark for 10 minutes at room temperature before measurement of luminescence intensity with Envision instrument. The raw data were expressed in RLU. Results were expressed in % of viability relative to DMSO control and an IC50 was calculated based on the concentration-response profile of individual compounds.

Assay [1] concerns the target T1, recombinant METTL3/METTL14 complex (Homo sapiens, UniProt Q86U44).
T1 construct: purchased Active Motif 311970; host or cells: Sf9 cells
The experiment in a line: METTL3/14 Scintillation Proximity Assay (SPA), RNA methyltransferase activity. Format: biochemical. Particulars: 5.31 nM METTL3/14 complex, 250 nM RNA substrate, 1 μM 3H-SAM, 90 min; for compounds marked * best of the two separated forms.

This passage reports IC50 results from patent US20250002475A1 (EPICS THERAPEUTICS, priority 2023, published 2025).

pIC50: −log10 of the molar value.

The term pIC50 denotes −log10 of the IC50, conventionally taken in molar units.

T1 sequence (Q86U44 whole entry): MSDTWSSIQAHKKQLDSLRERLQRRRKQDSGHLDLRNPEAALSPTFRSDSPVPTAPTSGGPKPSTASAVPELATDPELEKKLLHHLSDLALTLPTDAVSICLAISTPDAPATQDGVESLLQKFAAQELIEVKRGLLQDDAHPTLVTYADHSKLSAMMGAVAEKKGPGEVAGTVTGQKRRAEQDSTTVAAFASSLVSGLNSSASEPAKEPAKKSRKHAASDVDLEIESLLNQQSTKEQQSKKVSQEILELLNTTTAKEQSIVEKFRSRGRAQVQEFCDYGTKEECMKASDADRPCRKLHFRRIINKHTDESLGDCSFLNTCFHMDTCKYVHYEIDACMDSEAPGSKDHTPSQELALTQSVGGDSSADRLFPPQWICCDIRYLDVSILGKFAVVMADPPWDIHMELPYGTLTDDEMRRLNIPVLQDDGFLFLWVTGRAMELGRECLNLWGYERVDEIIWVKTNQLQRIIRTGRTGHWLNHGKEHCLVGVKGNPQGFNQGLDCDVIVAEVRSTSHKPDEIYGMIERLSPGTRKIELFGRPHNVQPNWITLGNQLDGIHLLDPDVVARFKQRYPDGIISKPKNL
T1 sequence (Q9HCE5 whole entry partner): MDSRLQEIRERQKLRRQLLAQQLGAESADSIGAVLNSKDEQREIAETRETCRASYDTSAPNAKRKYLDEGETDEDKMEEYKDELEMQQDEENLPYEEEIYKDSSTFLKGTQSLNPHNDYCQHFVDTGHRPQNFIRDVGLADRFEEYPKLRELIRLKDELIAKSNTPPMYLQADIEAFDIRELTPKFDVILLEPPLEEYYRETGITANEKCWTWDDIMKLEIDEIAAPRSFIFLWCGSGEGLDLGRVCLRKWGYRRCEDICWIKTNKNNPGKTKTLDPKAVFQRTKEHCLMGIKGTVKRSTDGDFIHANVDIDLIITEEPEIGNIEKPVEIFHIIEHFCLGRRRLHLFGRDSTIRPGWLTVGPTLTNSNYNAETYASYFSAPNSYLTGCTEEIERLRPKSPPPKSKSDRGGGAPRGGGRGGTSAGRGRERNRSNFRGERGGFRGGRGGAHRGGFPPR

Turning to `COc1cc(-c2cn(Cc3ccc(N4CCCC(NCC5CCC5)C4)c(=O)[nH]3)nn2)c2cn[nH]c2c1` (centres unmarked) [Compound 052, 3-(3-((cyclobutylmethyl)amino)piperidin-1-yl)-6-((4-(6-methoxy-1H-indazol-4-yl)-1H-1,2,3-triazol-1-yl)methyl)pyridin-2(1H)-one], the values for the negative-log IC50 (pIC50) (in the assay on Kasumi-1 cells; in assay [1]) were below 5.30 and 6.30 to 7.30, respectively.
Take `COc1cc(-c2cn(Cc3cnc(N4CCCC(NCC5CCC5)C4)nc3)nn2)c2cn[nH]c2c1` (centres unmarked) [Compound 046, N-(cyclobutylmethyl)-1-(5-((4-(6-methoxy-1H-indazol-4-yl)-1H-1,2,3-triazol-1-yl)methyl)pyrimidin-2-yl)piperidin-3-amine]: the pIC50 in the assay on Kasumi-1 cells was below 5.30; in assay [1], 6.30 to 7.30.
On to `COc1cc(-c2cn(Cc3n[nH]c(N4CCC[C@@H](NCC5CCC5)C4)cc3=O)nn2)c2cn[nH]c2c1` [Compound 039, (R)-6-(3-((cyclobutylmethyl)amino)piperidin-1-yl)-3-((4-(6-methoxy-1H-indazol-4-yl)-1H-1,2,3-triazol-1-yl)methyl)pyridazin-4(1H)-one], for which the figures for the pIC50 (in the assay with Kasumi-1 cells; in assay [1]) were below 5.30 and at least 7.30, respectively.
As to `COc1cc(-c2cn(Cc3ncc(N4CCCC(NCC5CCC5)C4)cn3)nn2)c2cn[nH]c2c1` (centres unmarked) [Compound 043, N-(cyclobutylmethyl)-1-(2-((4-(6-methoxy-1H-indazol-4-yl)-1H-1,2,3-triazol-1-yl)methyl)pyrimidin-5-yl)piperidin-3-amine], the negative-log IC50 (pIC50) in the assay with Kasumi-1 cells was below 5.30; in assay [1], at least 7.30.
Turning to `COc1cc(-c2cn(Cn3cnc(N4CCC[C@@H](NCC5CCC5)C4)cc3=O)nn2)c2cn[nH]c2c1` [Compound 041, (R)-6-(3-((cyclobutylmethyl)amino)piperidin-1-yl)-3-((4-(6-methoxy-1H-indazol-4-yl)-1H-1,2,3-triazol-1-yl)methyl)pyrimidin-4(3H)-one], the pIC50 was below 5.30 in the assay on Kasumi-1 cells and 6.30 to 7.30 in assay [1].
On to `CC1CCCN1c1cncc(-c2cn(C(C)n3ccc(N4CCC[C@@H](NCC5CCC5)C4)cc3=O)nn2)c1` (mixture of isomers) [Compound 172], for which the pIC50 in assay [1] is 6.30 to 7.30.
Still for that read-out and setting: for `CNc1ccn2c(=O)cc(C(=O)NC(C)c3ccc(N4CCC[C@@H](NCC5CCC5)C4)nn3)nc2c1` (mixture of isomers) [Compound 091, N-(1-(6-((R)-3-((cyclobutylmethyl)amino)piperidin-1-yl)pyridazin-3-yl)ethyl)-8-(methylamino)-4-oxo-4H-pyrido[1,2-a]pyrimidine-2-carboxamide] the value was at least 7.30; for `C[C@H](NC(=O)c1cc(=O)n2ccccc2n1)c1ccc(N2CCC[C@@H](NCC3CCC3)C2)cc1` [Compound 074, N-((S)-1-(4-((R)-3-((cyclobutylmethyl)amino)piperidin-1-yl)phenyl)ethyl)-4-oxo-4H-pyrido[1,2-a]pyrimidine-2-carboxamide], at least 7.30; for `COc1cncc(-c2cn(C(C)c3ccc(N4CCC[C@@H](NCC5CC5)C4)cn3)nn2)n1` (stereo partly drawn) [Compound 261, (3R)—N-(cyclopropylmethyl)-1-(6-(1-(4-(6-methoxypyrazin-2-yl)-1H-1,2,3-triazol-1-yl)ethyl)pyridin-3-yl)piperidin-3-amine], at least 7.30.
Same read-out and setting: for `COc1cncc(-c2cc(C(C)n3ccc(N4CCC[C@@H](NCC5CCC5)C4)cc3=O)on2)c1` (mixture of isomers) [Compound 130, 4-((R)-3-((cyclobutylmethyl)amino)piperidin-1-yl)-1-(1-(3-(5-methoxypyridin-3-yl)isoxazol-5-yl)ethyl)pyridin-2(1H)-one] the value was at least 7.30.
The same measure, in the same setting: for `Cc1cncc(-c2cn(C(C)n3ccc(N4CCC[C@@H](NCC5CC5)C4)cc3=O)nn2)n1` (single isomer, unassigned) [Compound 255] the value was 6.30 to 7.30; for `Cc1cc(N2CCC[C@@H](NCC3CC3)C2)cc(=O)n1Cn1cc(-c2cncc(N(C)C)c2)nn1` [Compound 163], at least 7.30.
For `COc1cncc(-c2cn(Cc3ccc(N4CCC(F)(F)C(NCC5CCC5)C4)nn3)nn2)c1` (centres unmarked) [Compound 059, N-(cyclobutylmethyl)-4,4-difluoro-1-(6-((4-(5-methoxypyridin-3-yl)-1H-1,2,3-triazol-1-yl)methyl)pyridazin-3-yl)piperidin-3-amine], the negative logarithm of the IC50 (pIC50) in assay [1] was 6.30 to 7.30.
On the same count and under the same terms, for `CC(c1ccc(N2CCC[C@@H](NCC3CCC3)C2)cn1)n1cc(-c2cc(=O)n3ccccc3n2)nn1` (mixture of isomers) [Compound 099, 2-(1-(1-(5-((R)-3-((cyclobutylmethyl)amino)piperidin-1-yl)pyridin-2-yl)ethyl)-1H-1,2,3-triazol-4-yl)-4H-pyrido[1,2-a]pyrimidin-4-one] the value was at least 7.30; for `O=C(Cc1ccc(N2CCC[C@@H](NCC3CCC3)C2)cn1)Nc1cncc(N2CCCC2)n1` [Compound 277, (R)-2-(5-(3-((cyclobutylmethyl)amino)piperidin-1-yl)pyridin-2-yl)-N-(6-(pyrrolidin-1-yl)pyrazin-2-yl)acetamide], at least 7.30.
With `c1ncc(C2CC2)cc1-c1cn(C2(c3ccc(N4CCC[C@H](NCC5CC5)C4)cn3)COC2)nn1` [Compound 351, (S)—N-(cyclopropylmethyl)-1-(6-(3-(4-(5-cyclopropylpyridin-3-yl)-1H-1,2,3-triazol-1-yl)oxetan-3-yl)pyridin-3-yl)piperidin-3-amine], the pIC50 with Kasumi-1 cells is 5.30 to 6.30; in assay [1], 6.30 to 7.30.
For the molecule `COc1cncc(-c2noc(C(C)n3ccc(N4CCC[C@@H](NCC5CCC5)C4)cc3=O)n2)c1` (stereo partly drawn) [Compound 125, 4-((R)-3-((cyclobutylmethyl)amino)piperidin-1-yl)-1-(1-(3-(5-methoxypyridin-3-yl)-1,2,4-oxadiazol-5-yl)ethyl)pyridin-2(1H)-one], in assay [1], the pIC50 was 6.30 to 7.30.
Same read-out and setting: for `CC(n1cc(-c2cncc(-n3cccn3)c2)nn1)n1ccc(N2CCC[C@@H](NCC3CCC3)C2)cc1=O` (mixture of isomers) [Compound 146, 1-(1-(4-(5-(1H-pyrazol-1-yl)pyridin-3-yl)-1H-1,2,3-triazol-1-yl)ethyl)-4-((R)-3-((cyclobutylmethyl)amino)piperidin-1-yl)pyridin-2(1H)-one] the value was at least 7.30.
Regarding `Cc1cc(N2CCC[C@@H](NCC3CC3)C2)cnc1C(C)n1cc(-c2cncc(C3CC3)c2)nn1` (single isomer, unassigned) [Compound 318], the pIC50 in assay [1] was at least 7.30.
As for `CC(n1cnc(-c2cncc(N(C)C)c2)c1)n1ccc(N2CCC[C@@H](NCC3CC3)C2)cc1=O` (single isomer, unassigned) [Compound 266], the negative-log IC50 (pIC50) in assay [1] is at least 7.30.
The same measure, in the same setting: for `COc1cc(-c2cn(Cc3ccc(N4CCC[C@@H](NC(C)C5CC5)C4)nn3)nn2)c2cn[nH]c2c1` (single isomer, unassigned) [Compound 045] the value was at least 7.30.
`c1cc(N2CCC[C@@H](NCC3CCC3)C2)nnc1Cn1cc(-c2csc3cncn23)nn1` [Compound 034, (R)-N-(cyclobutylmethyl)-1-(6-((4-(imidazo[5,1-b]thiazol-3-yl)-1H-1,2,3-triazol-1-yl)methyl)pyridazin-3-yl)piperidin-3-amine]: the pIC50 in assay [1] is at least 7.30.
Still for that read-out and setting: for `COc1cc(NC(=O)C2(c3ccc(N4CCC[C@@H](NCC5CCC5)C4)cn3)COC2)c2cn[nH]c2c1` [Compound 273, (R)-3-(5-(3-((cyclobutylmethyl)amino)piperidin-1-yl)pyridin-2-yl)-N-(6-methoxy-1H-indazol-4-yl)oxetane-3-carboxamide] the value was at least 7.30.
